Patent US6335357B1, “Pyrazole derivatives, process for preparing the same, intermediates, and pest control agent containing the same as active ingredient” (Mitsubishi Chemical Corporation, priority 1997, dated 2002)

Key:
Assay type in all cases: in vivo
Spodoptera litura [1] = experiment: Low concentration test, Spodoptera litura (Test Example 6)
Plutella xylostella [2] = experiment: Low concentration test, Plutella xylostella (Test Example 6)
Source text: Effects on the larvae of Plutella xylostella of compound Nos. 2 and 57 of the invention and, for comparison, the compound I described in an unexamined published Japanese patent application 63-316771 and the compounds II and III described in an unexamined published Japanese patent application 5-148240 were examined at varied concentrations. The results obtained are shown in Table 7 (the compound numbers in the Table correspond to the numbers in Table 1).

Myzus persicae [3] = experiment: Low concentration test, Myzus persicae (Test Example 6)
Callosobruchus chinensis = experiment: Insecticidal effect on imagoes of Callosobruchus chinensis (Test Example 4); conditions: 500 ppm, sprayed emulsion, after 4 days at 25° C.
Experimental: Insecticidal Effect on Imagoes of Callosobruchus chinensis:
Two adzuki beans were put in a glass cylinder (inner diameter: 3 cm; length: 15 cm), and 10 imagoes of Callosobruchus chinensis were set free therein. An agricultural and horticultural insecticide was prepared in accordance with Formulation Example 3 and diluted with water, and 0.3 ml of the resulting emulsion was sprayed in the glass cylinder by means of a spray tower (manufactured by Mizuho Rica) (duplicates at a concentration). The cylinder was kept in a thermostat at 25° C., and the mortality and agony of the larvea were examined after 4 days from the treatment to obtain a death rate (%) taking an agonizing insect as a ½ dead insect.

Plutella xylostella [4] = experiment: Insecticidal effect on larvae of Plutella xylostella (Test Example 2); conditions: 500 ppm; 3-instar larvae, cabbage leaf disc soaked in suspension; after 4 days at 25° C.
Experimental: Insecticideal Effect on Larvae of Plutella xylostella:
A disc (6 cm in diameter) cut out of a cabbage leaf was soaked in an aqueous suspension of the agricultural and horticultural insecticide prepared in accordance with Formulation Example 1 for 1 minute, air-dried, and placed in a plastic cup (inner diameter: 7 cm). Five 3-instar larvae of Plutella xylostella were set free in the cup (duplicates at a concentration). The cup was kept in a thermostat at 25° C., and the death and agony of the larvae were examined after 4 days from the treatment to obtain a death rate (%) taking an agonizing insect as a ½ dead insect. The results obtained are shown in Table 3 (the compound numbers in the Table below correspond to the numbers in Table 1).

Nilaparvata lugens = experiment: Insecticidal effect on larvae of Nilaparvata lugens (Test Example 1); conditions: 500 ppm; 4th instar larvae on rice seedling, sprayed emulsion; after 5 days at 25° C.
Experimental: Insecticidal Effect on Larvae of Nilaparvata lugens:
A rice seedling was planted in a glass cylinder (inner diameter: 3 cm; length: 17 cm), and five 4th instar larvae of Nilaparvata lugens were set free therein. An agricultural and horticultural insecticide was prepared in accordance with Formulation Example 3 and diluted with water, and 0.5 ml of the resulting emulsion was sprayed in the cylinder by means of a spray tower (manufactured by Mizuho Rika) (duplicates at a concentration). The cylinder was kept in a thermostat at 25° C., and the mortality and agony of the larvae were examined after 5 days from the treatment to obtain a death rate (%) taking an agonizing insect as a ½ dead insect.

Spodoptera litura [5] = experiment: Insecticidal effect on larvae of Spodoptera litura (Test Example 3); conditions: 500 ppm; 3-instar larvae, cabbage leaf disc soaked in suspension; after 5 days at 25° C.
Experimental: Insecticidal Effect on Larvae of Spodoptera litura:
A disc (6 cm in diameter) cut out of a cabbage leaf was soaked in an aqueous suspension of an agricultural and horticultural insecticide prepared in accordance with Formulation Example 1 for 1 minute, air-dried, and placed in a plastic cup (inner diameter: 7 cm). Five 3-instar larvae of Spodoptera litura were set free in the cup (duplicates at a concentation). The cup was kept in a thermostat at 25° C., and the death and agony of the larvae were examined after 5 days from the treatment to obtain a death rate (%) taking an agonizing insect as a ½ dead insect. The results obtained are show in Table 4 (the compound numbers in the Table below correspond to the numbers in Table 1).

Myzus persicae [6] = experiment: Insecticidal effect on larvae of Myzus persicae (Test Example 5); conditions: 500 ppm; Japanese radish leaves dipped in emulsion; 4th day after treatment at 25° C.
Experimental: Insecticidal Effect on Larvae of Myzus persicae:
Water was put in a screw bottle (volume: 10 ml), and a leafstalk of Japanese radish was placed therein and inoculated with 5 to 6 imagoes of Myzus persicae per leave. After the inoculation, the bottle was put in a glass cylinder (diameter: 3.5 cm; height: 15 cm) with a mesh cover, and the insects were let to proliferate in a thermostat kept at 25° C. for 3 days. […] The cylinder was maintained in the thermostat at 25° C., and the number of the insects on the leaves was counted on the 4th day after the treatment to obtain a death rate (%).

CD-1 male mice = experiment: Single oral dose administration test in mice (acute toxicity, Test Example 7); conditions: 300 mg/kg single oral dose in 0.5% CMC-Na, after 7 days
Experimental: Single Oral Dose Administration Test in Mice:
Acute toxicity (p.o.) compound No. 1 in mice was examined as follows. For comparison, compound IV disclosed in an unexamined published Japanese patent application 63-316771 was tested similarly.
Each test compound (300 mg) was suspended in 10 ml of a 0.5% CMC-Na aqueous solution. Five 6-week-old CD-1 male mice (available from Charles River) per group were forced to take an oral dose of 10 ml/kg of the suspension. The number of dead mice was counted after 7 days from the administration to obtain a death rate.

SMILES | Death Rate (%) Spodoptera litura (Spodoptera litura [1]; 12.5 ppm) [%] | Death Rate (%) Spodoptera litura (Spodoptera litura [1]; 50 ppm) [%] | Death Rate (%) Spodoptera litura (Spodoptera litura [1]; 200 ppm) [%] | Death Rate (%) Plutella xylostella (Plutella xylostella [2]; 0.8 ppm) [%] | Death Rate (%) Plutella xylostella (Plutella xylostella [2]; 3.1 ppm) [%] | Death Rate (%) Plutella xylostella (Plutella xylostella [2]; 12.5 ppm) [%] | Death Rate (%) Plutella xylostella (Plutella xylostella [2]; 50 ppm) [%] | Death Rate (%) Plutella xylostella (Plutella xylostella [2]; 200 ppm) [%] | Death Rate (%) Myzus persicae (Myzus persicae [3]; 200 ppm) [%] | Death Rate (%) (Callosobruchus chinensis) | Death Rate (%) (Plutella xylostella [4]) | Death Rate (%) (Nilaparvata lugens) | Death Rate (%) (Spodoptera litura [5]) | Death Rate (%) Plutella xylostella (Plutella xylostella [2]; 0.2 ppm) [%] | other results
Cn1cccc1C=Nc1c(SC(F)(F)F)c(C#N)nn1-c1c(Cl)cc(C(F)(F)F)cc1Cl [III] | 65 | 95 | 100 | 20 | 75 | 100 | 100 | 100 | 0 |  |  |  |  |  | 
CC(C)Oc1ccc(CNc2c(SC(F)(F)F)c(C#N)nn2-c2c(Cl)cc(C(F)(F)F)cc2Cl)cc1 [Compound 8] |  |  |  |  |  |  |  |  |  | 100 | 100 | 100 |  |  | 
N#Cc1nn(-c2c(Cl)cc(C(F)(F)F)cc2Cl)c(NCc2ccccc2Cl)c1SC(F)(F)F [Compound 18] |  |  |  |  |  |  |  |  |  | 100 | 100 | 100 | 100 |  | 
COc1ccc(CNc2c(SC(F)(F)F)c(C#N)nn2-c2c(Cl)cc(C(F)(F)F)cc2Cl)cc1 [Compound 7] |  |  |  |  |  |  |  |  |  | 100 | 100 | 100 | 100 |  | 
N#Cc1nn(-c2c(Cl)cc(C(F)(F)F)cc2Cl)c(NCc2ccncc2)c1SC(F)(F)F [Compound 1, 1-(2,6-Dichloro-4-trifluoromethylphenyl)-3-cyano-4-trifluoromethylsulfenyl-5-(4-pyridylmethylamino)pyrazole] | 100 | 100 | 100 | 100 | 100 | 100 | 100 | 100 | 100 | 100 | 100 | 100 | 100 | 100 | Death Rate (%) Spodoptera litura (Spodoptera litura [1]; 3.1 ppm): 95%; Death Rate (%) Plutella xylostella (Plutella xylostella [2]; 0.05 ppm): 95%; Death Rate (%) (Myzus persicae [6]): 100%; Death Rate (%) Myzus persicae (Myzus persicae [3]; 12.5 ppm): 98%; Death Rate (%) Myzus persicae (Myzus persicae [3]; 50 ppm): 100%
COc1cc(CNc2c(SC(F)(F)F)c(C#N)nn2-c2c(Cl)cc(C(F)(F)F)cc2Cl)ccc1O [Compound 2, 1-(2,6-Dichloro-4-trifluoromethylphenyl)-3-cyano-4-trifluoromethylsulfenyl-5-[(3-methoxy-4-hydroxyphenyl)methylamino]pyrazole] |  |  |  |  |  |  |  |  |  | 100 | 100 | 100 | 100 |  | Death Rate (%) (Myzus persicae [6]): 100%; Death Rate (%) (CD-1 male mice): 0%
CCCNc1c(SC(F)(F)F)c(C#N)nn1-c1c(Cl)cc(C(F)(F)F)cc1Cl [I] | 50 | 100 | 100 | 85 | 100 | 100 | 100 | 100 | 50 |  |  |  |  | 20 | Death Rate (%) Spodoptera litura (Spodoptera litura [1]; 3.1 ppm): 0%; Death Rate (%) Myzus persicae (Myzus persicae [3]; 3.1 ppm): 0%; Death Rate (%) Myzus persicae (Myzus persicae [3]; 12.5 ppm): 50%; Death Rate (%) Myzus persicae (Myzus persicae [3]; 50 ppm): 60%
Cn1cccc1CNc1c(SC(F)(F)F)c(C#N)nn1-c1c(Cl)cc(C(F)(F)F)cc1Cl [Compound 57] | 70 | 100 | 100 | 100 | 100 | 100 | 100 | 100 | 100 | 100 | 100 | 100 | 100 | 40 | Death Rate (%) (Myzus persicae [6]): 100%; Death Rate (%) Myzus persicae (Myzus persicae [3]; 12.5 ppm): 80%; Death Rate (%) Myzus persicae (Myzus persicae [3]; 50 ppm): 90%
CC(C)(C)c1ccc(CNc2c(SC(F)(F)F)c(C#N)nn2-c2c(Cl)cc(C(F)(F)F)cc2Cl)cc1 [Compound 5] |  |  |  |  |  |  |  |  |  | 100 |  | 100 |  |  | 
COc1cc(CNc2c([S+]([O-])C(F)(F)F)c(C#N)nn2-c2c(Cl)cc(C(F)(F)F)cc2Cl)ccc1O (stereo not shown) [Compound 64] |  |  |  |  |  |  |  |  |  | 100 | 100 | 100 |  |  | 
N#Cc1nn(-c2c(Cl)cc(C(F)(F)F)cc2Cl)c(N)c1[S+]([O-])C(F)(F)F (stereo not shown) [IV, reference compound] |  |  |  |  |  |  |  |  |  |  |  |  |  |  | Death Rate (%) (CD-1 male mice): 80%
N#Cc1nn(-c2c(Cl)cc(C(F)(F)F)cc2Cl)c(N=Cc2ccncc2)c1SC(F)(F)F [II] | 95 | 200 | 100 | 100 | 100 | 100 | 100 | 100 | 0 |  |  |  |  | 100 | Death Rate (%) Spodoptera litura (Spodoptera litura [1]; 3.1 ppm): 60%; Death Rate (%) Plutella xylostella (Plutella xylostella [2]; 0.05 ppm): 80%
